The results in this text go back to ChEMBL document CHEMBL1201862, “PubChem BioAssay data set” (2004).

Among the test systems are HOP-92; EKVX; OVCAR-5; SF-268; SK-OV-3; OVCAR-8; SW-620; SF-295; IGROV-1; KM12; SNB-75; HT-29; OVCAR-3; T47D; HCT-116; 786-0; UO-31; COLO 205; K562; SR.
What all share (assay): DTP human tumour cell line panel, 48 h

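Step 1: Grow cells in 96-well plates. Step 2: Expose to compound for 48 hours at 5 concentrations. Step 3: Interpolate endpoints linearly; if unreached, use highest concentration. At the GI50, growth is halved.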 Active and inactive are the calls of the source. Rule as the data show it: active = GI50 up to about 1.1 µM and inactive = higher.

Take `CCOc1ccc(NC(=O)C(=O)C2C(=O)Nc3ccccc3[S+]2[O-])cc1` (stereo unspecified): the GI50 is > 100 µM (inactive) in the test with HOP-92; 85.9 µM (inactive) in the test on EKVX; > 100 µM (inactive) with OVCAR-5; > 100 µM (inactive) with SF-268; > 100 µM (inactive) with SK-OV-3; > 100 µM (inactive) with OVCAR-8. Moreover, the GI50 is > 100 µM (inactive) in the test on SW-620; > 100 µM (inactive) with SF-295; 55.6 µM (inactive) in the test with IGROV-1; > 100 µM (inactive) in the test with KM12; 95.1 µM (inactive) with SNB-75; > 100 µM (inactive) in the test with HT-29. For the same compound, the GI50 in the test with OVCAR-3, in the test with T47D, in the test with HCT-116, in the test on 786-0 and in the test on UO-31 was > 100 µM (inactive) each time.
On to `FC1CCN(C2(c3cccs3)CCCCC2)CC1`, for which the GI50 in the test on COLO 205 is > 100 µM (inactive); in the test on HOP-92, 62.8 µM (inactive); in the test on EKVX, > 100 µM (inactive); in the test with OVCAR-5, > 100 µM (inactive); with SK-OV-3, > 100 µM (inactive); in the test with OVCAR-8, > 100 µM (inactive). Besides, the GI50 is > 100 µM (inactive) with SW-620; > 100 µM (inactive) in the test with SF-295; > 100 µM (inactive) in the test with IGROV-1; > 100 µM (inactive) with KM12; > 100 µM (inactive) in the test on SNB-75; 47.8 µM (inactive) with HT-29. Moreover, the GI50 in the test on OVCAR-3, in the test with T47D, in the test on HCT-116, with 786-0, with K562 and in the test on UO-31 was > 100 µM (inactive) in each case.
Take `NC1CC(=O)c2cscc21` (stereo unspecified): the GI50 in the test with COLO 205 was 20.6 µM (inactive); in the test with HOP-92, 23 µM (inactive); in the test with EKVX, > 100 µM (inactive); in the test on OVCAR-5, > 100 µM (inactive); in the test on SK-OV-3 it was > 100 µM (inactive); in the test with OVCAR-8, 31 µM (inactive). Also, the GI50 with SW-620 is 17.6 µM (inactive); in the test on SF-295, > 100 µM (inactive); in the test on IGROV-1, > 100 µM (inactive); in the test on KM12, 18.4 µM (inactive); in the test on SNB-75, > 100 µM (inactive); in the test with HT-29, > 100 µM (inactive). Also, the GI50 in the test on OVCAR-3 was 17.5 µM (inactive); in the test on T47D, 19.6 µM (inactive); in the test on HCT-116 it was 67.5 µM (inactive); in the test on 786-0 it was 15.1 µM (inactive); in the test on K562, 42.1 µM (inactive); in the test on UO-31, 10.3 µM (inactive).
With `COc1c(-c2nc3ccc(N4CCN(C)CC4)nc3[nH]2)cc(OC)c2c1nc(CCl)n2C`, the GI50 in the test on COLO 205 is 14.4 µM (inactive); in the test on HOP-92, 22.8 µM (inactive); with EKVX, 19.4 µM (inactive); in the test on OVCAR-5, 21.6 µM (inactive); in the test with SF-268, 22.4 µM (inactive); in the test with SK-OV-3, 28.8 µM (inactive). Further, the GI50 in the test with OVCAR-8 was 20.1 µM (inactive); in the test with SW-620 it was 20.9 µM (inactive); in the test with SF-295 it was 31.8 µM (inactive); in the test on IGROV-1, 18.4 µM (inactive); with KM12, 14.8 µM (inactive); with SNB-75, 12.6 µM (inactive). Moreover, the GI50 in the test with HT-29 is 16.3 µM (inactive); with OVCAR-3, 28.1 µM (inactive); in the test on T47D, 16 µM (inactive); in the test on HCT-116, 32.2 µM (inactive); in the test with 786-0, 17.9 µM (inactive); with K562, 29 µM (inactive). Further, the GI50 in the test with UO-31 is 16.5 µM (inactive).
Take `Clc1ccc(C2=CCN3CC=C(c4ccc(Cl)cc4)C23)cc1`: the GI50 in the test with COLO 205 was 2.7 µM (inactive); in the test on EKVX, 15.3 µM (inactive); in the test on OVCAR-5 it was 3.78 µM (inactive); in the test with SF-268, 7.96 µM (inactive); with OVCAR-8, 14.2 µM (inactive); in the test on SW-620 it was 13.3 µM (inactive). Besides, the GI50 in the test with SF-295 is 14.6 µM (inactive); in the test on IGROV-1, 9.93 µM (inactive); in the test on SR, 6.7 µM (inactive); in the test with KM12 it was 6.64 µM (inactive); in the test with HT-29 it was 5.21 µM (inactive); with OVCAR-3, 12.6 µM (inactive). Moreover, the GI50 in the test on T47D was 12.7 µM (inactive); in the test on HCT-116, 5.98 µM (inactive); with 786-0 it was 11.6 µM (inactive); in the test with K562, 3.17 µM (inactive); with UO-31, 6.81 µM (inactive).
Take `CCC(=O)C1(N2CCOCC2)CCN(CCCC(=O)c2ccc(F)cc2)CC1`: the GI50 in the test on COLO 205, in the test on EKVX, with OVCAR-5, in the test on SF-268, with SK-OV-3 and with OVCAR-8 was > 100 µM (inactive) each time. The GI50 was > 100 µM (inactive) with SW-620; > 100 µM (inactive) with SF-295; > 100 µM (inactive) in the test with IGROV-1; > 100 µM (inactive) in the test with KM12; > 100 µM (inactive) with SNB-75; 39.2 µM (inactive) with HT-29. Besides, the GI50 in the test on OVCAR-3, in the test on T47D, in the test with HCT-116, in the test on 786-0, with K562 and in the test on UO-31 was > 100 µM (inactive) in each case.
Regarding `O=C(CSCC(=O)N/N=C/c1ccccc1)N/N=C\c1ccccc1`, the GI50 with COLO 205, with HOP-92, with EKVX, in the test with OVCAR-5, in the test with SF-268 and in the test on SK-OV-3 was > 100 µM (inactive) in each case. Also, the GI50 in the test with OVCAR-8 was > 100 µM (inactive); in the test on SW-620, > 100 µM (inactive); in the test on SF-295 it was > 100 µM (inactive); in the test on IGROV-1 it was > 100 µM (inactive); in the test on KM12, 16.7 µM (inactive); in the test on SNB-75, > 100 µM (inactive). For the same compound, the GI50 in the test on HT-29 is > 100 µM (inactive); in the test with OVCAR-3 it was > 100 µM (inactive); in the test on T47D it was 77.6 µM (inactive); in the test on HCT-116 it was > 100 µM (inactive); in the test with 786-0, > 100 µM (inactive); in the test on K562 it was > 100 µM (inactive). Moreover, the GI50 in the test on UO-31 was > 100 µM (inactive).
Turning to `Nc1nc(Cl)c(N)c(NCC2(CO)CCC(OCc3ccccc3)C2)n1` (stereo unspecified), the GI50 in the test with COLO 205 is > 100 µM (inactive); in the test with HOP-92 it was > 100 µM (inactive); in the test on EKVX, 0.931 µM (active); in the test on OVCAR-5 it was > 100 µM (inactive); with SF-268, > 100 µM (inactive); in the test with SK-OV-3, > 100 µM (inactive). Further, the GI50 with OVCAR-8 was > 100 µM (inactive); in the test with SW-620, > 100 µM (inactive); with SF-295, 4.9 µM (inactive); in the test with IGROV-1, > 100 µM (inactive); in the test on KM12, > 100 µM (inactive); with SNB-75, > 100 µM (inactive). Further, the GI50 was > 100 µM (inactive) with HT-29; > 100 µM (inactive) in the test on OVCAR-3; 0.372 µM (active) in the test with T47D; > 100 µM (inactive) with HCT-116; > 100 µM (inactive) with 786-0; 1.33 µM (inactive) with K562. Also, the GI50 in the test with UO-31 was > 100 µM (inactive).
In the case of `CC1(C)CC(=O)C2(CC(CSc3ccccc3)C(CS(=O)(=O)c3ccccc3)C2)C(=O)C1` (stereo unspecified), the GI50 with COLO 205, in the test on HOP-92, in the test on EKVX, in the test on OVCAR-5, in the test on SF-268 and in the test on SK-OV-3 was > 100 µM (inactive) in each case. In addition, the GI50 is > 100 µM (inactive) with OVCAR-8; > 100 µM (inactive) in the test on SW-620; > 100 µM (inactive) in the test on SF-295; > 100 µM (inactive) in the test with IGROV-1; > 100 µM (inactive) in the test with KM12; 4.85 µM (inactive) with SNB-75. The GI50 with HT-29 was 78.3 µM (inactive); with OVCAR-3, > 100 µM (inactive); with T47D it was 45.5 µM (inactive); with HCT-116, > 100 µM (inactive); in the test with 786-0, > 100 µM (inactive); with K562, > 100 µM (inactive). Moreover, the GI50 in the test with UO-31 was > 100 µM (inactive).
For `CN(CCCNC(=O)c1n[nH]c2c1ccc1ccccc12)CCCNC(=O)c1n[nH]c2c1ccc1ccccc12`, the GI50 is 2.69 µM (inactive) in the test on COLO 205; 14.6 µM (inactive) in the test on HOP-92; 21.4 µM (inactive) in the test with EKVX; 20.4 µM (inactive) in the test on OVCAR-5; 14.7 µM (inactive) with SF-268; 18.1 µM (inactive) in the test on SK-OV-3. For the same compound, the GI50 in the test with OVCAR-8 was 16.4 µM (inactive); in the test on SW-620, 16.3 µM (inactive); in the test with SF-295 it was 17.3 µM (inactive); in the test with IGROV-1 it was 16.5 µM (inactive); in the test on KM12 it was 16.9 µM (inactive); in the test with SNB-75, 16.3 µM (inactive). The GI50 was 14.6 µM (inactive) in the test on HT-29; 13.8 µM (inactive) in the test on OVCAR-3; 16 µM (inactive) with T47D; 12.7 µM (inactive) with HCT-116; 10.9 µM (inactive) in the test on 786-0; 14.6 µM (inactive) in the test with UO-31.
For `CC(=O)[O-].[Zn+].c1ccc(/C(=N\Nc2ccccn2)c2ccccn2)cc1`, the concentration for 50% growth inhibition (GI50) in the test on COLO 205 was 0.00028 µM (active); in the test on HOP-92, 0.381 µM (active); in the test with EKVX it was 0.00629 µM (active); in the test with OVCAR-5 it was 0.025 µM (active); in the test on SF-268, 0.277 µM (active); with SK-OV-3, 0.0615 µM (active). Besides, the GI50 in the test on OVCAR-8 is 0.0519 µM (active); in the test with SW-620, 0.0676 µM (active); in the test with SF-295, 0.348 µM (active); with IGROV-1, 0.0374 µM (active); with KM12, 0.356 µM (active); in the test on SNB-75, 0.914 µM (active). Also, the 50% growth inhibitory concentration (GI50) with HT-29 was 0.01 µM (active); in the test on OVCAR-3, 0.0015 µM (active); with T47D, 0.00206 µM (active); in the test on HCT-116 it was 0.005 µM (active); with 786-0, 0.137 µM (active); in the test on K562, 0.00535 µM (active). For the same compound, the GI50 in the test with UO-31 was 0.253 µM (active).

Usually GI50 stands for the concentration that inhibits growth by half.
